Active and inactive are the calls of the source. The calls are words filed in the database; no cut-off is given here.
Tests used:
[1] = biological target: Fibroblast growth factor receptor 1 (Homo sapiens, UniProt P11362); test: Inhibition of FGFR1 (unknown origin); assay type: single protein
[2] = biological target: Vascular endothelial growth factor receptor 2 (Homo sapiens, UniProt P35968); test: Inhibition of KDR (unknown origin); assay type: single protein
[3] = biological target: Cyclin-dependent kinase 4 (Homo sapiens, UniProt P11802); test: Inhibition of CDK4 (unknown origin); assay type: single protein
[4] = biological target: Cyclin-dependent kinase 2 (Homo sapiens, UniProt P24941); test: Inhibition of CDK2 (unknown origin); assay type: single protein
HCT-116 [5] = test: Antitumor activity against human HCT116 cells xenografted in mouse assessed as tumor growth inhibition at 1.56 mg/kg, po qd up to 32 days; assay type: functional, organism-based; design: dose 1.56 mg/kg
[6] = Volume of distribution at steady state in mouse at 5 mg/kg, iv; assay type: ADME, organism-based; design: dose 5 mg/kg, route intravenous; settings: in vivo, read-out: Vdss
MDA-MB-231 [7] = test: Antitumor activity against human MDA-MB-231 cells xenografted in mouse assessed as tumor regression at 50 mg/kg, po qd up to 32 days; assay type: functional, organism-based; design: dose 50 mg/kg
MDA-MB-231 [8] = test: Antitumor activity against human MDA-MB-231 cells xenografted in mouse assessed as tumor growth inhibition at 50 mg/kg, po qd up to 32 days; assay type: functional, organism-based; design: dose 50 mg/kg
[9] = Volume of distribution at steady state in rat at 5 mg/kg, iv; assay type: ADME, organism-based; design: dose 5 mg/kg, route intravenous; settings: in vivo, read-out: Vdss
[10] = Tmax in rat at 50 mg/kg, po; assay type: ADME, organism-based; design: dose 50 mg/kg, route oral; settings: in vivo
A549 [11] = test: Antitumor activity against human A549 cells xenografted in mouse assessed as increase in mouse survival at 25 to 50 mg/kg, po qd up to 32 days; assay type: functional; settings: dose mg/kg 25-50
HUVEC [12] = test: Antiangiogenic activity in HUVEC assessed as inhibition of bFGF-induced cell proliferation; assay type: functional, cell-based; settings: Homo sapiens
HUVEC [13] = test: Antiangiogenic activity in HUVEC assessed as inhibition of VEGF-induced cell proliferation; assay type: functional, cell-based; settings: Homo sapiens
[14] = Terminal half life in rat at 5 mg/kg, iv; assay type: ADME, organism-based; design: dose 5 mg/kg, route intravenous; settings: in vivo, read-out: beta t1/2 (converted)
[15] = Antiproliferative activity against human melanoma cells by MTT assay; assay type: functional, cell-based; settings: Melanoma cell
Aurora kinase A = biological target: T1, Aurora kinase A (Homo sapiens, UniProt O14965); test: Inhibition of aurora-A (unknown origin)
T1 sequence (O14965 whole entry): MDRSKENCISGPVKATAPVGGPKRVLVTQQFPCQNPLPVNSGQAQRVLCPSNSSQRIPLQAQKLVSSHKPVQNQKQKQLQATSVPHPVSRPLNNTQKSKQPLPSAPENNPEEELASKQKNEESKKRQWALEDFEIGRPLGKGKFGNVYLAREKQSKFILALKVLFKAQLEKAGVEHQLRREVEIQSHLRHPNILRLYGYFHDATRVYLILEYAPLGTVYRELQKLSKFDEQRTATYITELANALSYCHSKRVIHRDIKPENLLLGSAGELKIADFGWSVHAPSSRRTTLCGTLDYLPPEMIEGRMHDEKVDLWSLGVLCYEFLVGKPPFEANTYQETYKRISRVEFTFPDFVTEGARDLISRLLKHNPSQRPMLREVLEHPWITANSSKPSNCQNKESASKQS

[16] = Antiproliferative activity against human colon cancer cells by MTT assay; assay type: functional, cell-based; settings: Cancer cell lines
MDA-MB-231 [17] = test: Antitumor activity against human MDA-MB-231 cells xenografted in mouse assessed as increase in mouse survival at 25 to 50 mg/kg, po qd up to 32 days; assay type: functional; settings: dose mg/kg 25-50
[18] = Cmax in mouse at 25 mg/kg, po; assay type: ADME, organism-based; design: dose 25 mg/kg, route oral; settings: in vivo
[19] = AUC (0 to 24 hrs) in mouse at 25 mg/kg, po; assay type: ADME, organism-based; design: time < 24 hr, dose 25 mg/kg, route oral; settings: plasma
[20] = Antiproliferative activity against human lung cancer cells by MTT assay; assay type: functional, cell-based; settings: Cancer cell lines
[21] = Antiproliferative activity against human breast cancer cells by MTT assay; assay type: functional, cell-based; settings: Cancer cell lines
Mus musculus [22] = test: Toxicity in human A549 cells xenografted mouse assessed as changes in body weight and gross observation at 25 to 50 mg/kg, po qd up to 32 days; assay type: organism-based; design: dose 25-50 mg/kg, route oral; settings: in vivo, 768 h
Mus musculus [23] = test: Toxicity in human MDA-MB-231 cells xenografted mouse assessed as changes in body weight and gross observation at 25 to 50 mg/kg, po qd up to 32 days; assay type: organism-based; design: dose 25-50 mg/kg, route oral; settings: in vivo, 768 h
[24] = Oral bioavailability in rat at 50 mg/kg; assay type: ADME, organism-based; settings: in vivo
[25] = Total clearance in monkey at 1 mg/kg, iv; assay type: ADME, organism-based, Macaca mulatta; design: dose 1 mg/kg, route intravenous; settings: rhesus monkey, in vivo
A549 [26] = test: Antitumor activity against human A549 cells xenografted in mouse assessed as tumor growth inhibition at 1.56 mg/kg, po qd up to 32 days; assay type: functional, organism-based; design: dose 1.56 mg/kg
[27] = AUC (0 to 24 hrs) in monkey at 10 mg/kg, po; assay type: ADME, organism-based, Macaca mulatta; design: time < 24 hr, dose 10 mg/kg, route oral; settings: rhesus monkey, plasma
[28] = AUC (0 to 24 hrs) in rat at 50 mg/kg, po; assay type: ADME, organism-based; design: time < 24 hr, dose 50 mg/kg, route oral; settings: plasma
LoVo = test: Antitumor activity against human LoVo cells xenografted in mouse assessed as increase in mouse survival at 25 to 50 mg/kg, po qd up to 32 days; assay type: functional; settings: dose mg/kg 25-50
[29] = Tmax in monkey at 10 mg/kg, po; assay type: ADME, organism-based, Macaca mulatta; design: dose 10 mg/kg, route oral; settings: rhesus monkey, in vivo
[30] = Oral bioavailability in mouse at 25 mg/kg; assay type: ADME, organism-based; settings: in vivo
22Rv1 (Homo sapiens) = test: Antitumor activity against human 22Rv1 cells xenografted in mouse assessed as tumor growth inhibition at 25 to 50 mg/kg, po qd up to 32 days; settings: dose mg/kg 25-50
[31] = Total clearance in mouse at 5 mg/kg, iv; assay type: ADME, organism-based; design: dose 5 mg/kg, route intravenous; settings: in vivo
[32] = Antiproliferative activity against human prostate cancer cells by MTT assay; assay type: functional, cell-based; settings: Cancer cell lines
[33] = Terminal half life in monkey at 1 mg/kg, iv; assay type: ADME, organism-based, Macaca mulatta; design: dose 1 mg/kg, route intravenous; settings: rhesus monkey, in vivo, read-out: beta t1/2 (converted)
[34] = Cmax in rat at 50 mg/kg, po; assay type: ADME, organism-based; design: dose 50 mg/kg, route oral; settings: in vivo
[35] = Terminal half life in mouse at 5 mg/kg, iv; assay type: ADME, organism-based; design: dose 5 mg/kg, route intravenous; settings: in vivo, read-out: beta t1/2 (converted)
Mus musculus [36] = test: Toxicity in human LoVo cells xenografted mouse assessed as changes in body weight and gross observation at 25 to 50 mg/kg, po qd up to 32 days; assay type: organism-based; design: dose 25-50 mg/kg, route oral; settings: in vivo, 768 h
[37] = Antiproliferative activity against human oral epidermoid cancer cells by MTT assay; assay type: functional, cell-based; settings: Cancer cell lines
[38] = Volume of distribution at steady state in monkey at 1 mg/kg, iv; assay type: ADME, organism-based, Macaca mulatta; design: dose 1 mg/kg, route intravenous; settings: rhesus monkey, in vivo, read-out: Vdss
[39] = Tmax in mouse at 25 mg/kg, po; assay type: ADME, organism-based; design: dose 25 mg/kg, route oral; settings: in vivo
[40] = Cmax in monkey at 10 mg/kg, po; assay type: ADME, organism-based, Macaca mulatta; design: dose 10 mg/kg, route oral; settings: rhesus monkey, in vivo
Mus musculus [41] = test: Toxicity in human HCT116 cells xenografted mouse assessed as changes in body weight and gross observation at 25 to 50 mg/kg, po qd up to 32 days; assay type: organism-based, HCT-116; design: dose 25-50 mg/kg, route oral; settings: in vivo, 768 h
HUVEC [42] = test: Antiangiogenic activity in HUVEC assessed as inhibition of PDGF-induced cell proliferation; assay type: functional, cell-based; settings: Homo sapiens
HCT-116 [43] = test: Antitumor activity against human HCT116 cells xenografted in mouse assessed as increase in mouse survival at 25 to 50 mg/kg, po qd up to 32 days; assay type: functional; settings: dose mg/kg 25-50
[44] = Oral bioavailability in monkey at 10 mg/kg; assay type: ADME, organism-based, Macaca mulatta; settings: rhesus monkey, in vivo
MDA-MB-231 [45] = test: Antitumor activity against human MDA-MB-231 cells xenografted in mouse assessed as tumor regression at 25 mg/kg, po qd up to 32 days; assay type: functional, organism-based; design: dose 25 mg/kg
[46] = Total clearance in rat at 5 mg/kg, iv; assay type: ADME, organism-based; design: dose 5 mg/kg, route intravenous; settings: in vivo

Chain of Fibroblast growth factor receptor 1 (P11362 whole entry): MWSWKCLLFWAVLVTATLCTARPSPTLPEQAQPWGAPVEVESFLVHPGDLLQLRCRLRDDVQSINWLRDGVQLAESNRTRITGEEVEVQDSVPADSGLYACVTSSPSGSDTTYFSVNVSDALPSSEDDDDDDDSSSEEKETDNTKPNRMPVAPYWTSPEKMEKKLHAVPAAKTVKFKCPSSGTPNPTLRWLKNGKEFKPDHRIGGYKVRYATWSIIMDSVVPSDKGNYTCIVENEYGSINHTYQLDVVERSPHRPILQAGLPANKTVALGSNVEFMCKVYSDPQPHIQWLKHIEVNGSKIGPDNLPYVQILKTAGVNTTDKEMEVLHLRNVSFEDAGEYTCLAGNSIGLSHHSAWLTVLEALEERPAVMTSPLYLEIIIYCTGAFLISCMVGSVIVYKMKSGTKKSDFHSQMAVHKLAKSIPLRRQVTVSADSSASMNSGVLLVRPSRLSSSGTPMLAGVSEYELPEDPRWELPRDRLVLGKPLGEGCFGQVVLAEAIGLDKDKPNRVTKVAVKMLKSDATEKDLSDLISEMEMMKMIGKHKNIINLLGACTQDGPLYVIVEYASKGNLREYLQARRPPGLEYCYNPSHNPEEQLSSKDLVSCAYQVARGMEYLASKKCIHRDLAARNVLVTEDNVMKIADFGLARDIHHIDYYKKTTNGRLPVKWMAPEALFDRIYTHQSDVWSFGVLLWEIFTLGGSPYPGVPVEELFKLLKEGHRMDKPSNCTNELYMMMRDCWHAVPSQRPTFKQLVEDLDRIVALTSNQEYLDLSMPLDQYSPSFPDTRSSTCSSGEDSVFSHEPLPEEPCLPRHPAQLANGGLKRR
Chain of Cyclin-dependent kinase 4 (P11802 whole entry): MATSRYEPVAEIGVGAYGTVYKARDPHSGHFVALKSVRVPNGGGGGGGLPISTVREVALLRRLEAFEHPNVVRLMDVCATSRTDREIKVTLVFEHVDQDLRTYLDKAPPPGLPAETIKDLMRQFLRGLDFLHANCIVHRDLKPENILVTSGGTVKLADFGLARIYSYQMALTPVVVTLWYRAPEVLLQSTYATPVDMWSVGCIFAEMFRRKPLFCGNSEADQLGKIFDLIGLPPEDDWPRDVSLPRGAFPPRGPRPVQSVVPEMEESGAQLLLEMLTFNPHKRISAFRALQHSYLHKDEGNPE
Chain of Vascular endothelial growth factor receptor 2 (P35968 whole entry): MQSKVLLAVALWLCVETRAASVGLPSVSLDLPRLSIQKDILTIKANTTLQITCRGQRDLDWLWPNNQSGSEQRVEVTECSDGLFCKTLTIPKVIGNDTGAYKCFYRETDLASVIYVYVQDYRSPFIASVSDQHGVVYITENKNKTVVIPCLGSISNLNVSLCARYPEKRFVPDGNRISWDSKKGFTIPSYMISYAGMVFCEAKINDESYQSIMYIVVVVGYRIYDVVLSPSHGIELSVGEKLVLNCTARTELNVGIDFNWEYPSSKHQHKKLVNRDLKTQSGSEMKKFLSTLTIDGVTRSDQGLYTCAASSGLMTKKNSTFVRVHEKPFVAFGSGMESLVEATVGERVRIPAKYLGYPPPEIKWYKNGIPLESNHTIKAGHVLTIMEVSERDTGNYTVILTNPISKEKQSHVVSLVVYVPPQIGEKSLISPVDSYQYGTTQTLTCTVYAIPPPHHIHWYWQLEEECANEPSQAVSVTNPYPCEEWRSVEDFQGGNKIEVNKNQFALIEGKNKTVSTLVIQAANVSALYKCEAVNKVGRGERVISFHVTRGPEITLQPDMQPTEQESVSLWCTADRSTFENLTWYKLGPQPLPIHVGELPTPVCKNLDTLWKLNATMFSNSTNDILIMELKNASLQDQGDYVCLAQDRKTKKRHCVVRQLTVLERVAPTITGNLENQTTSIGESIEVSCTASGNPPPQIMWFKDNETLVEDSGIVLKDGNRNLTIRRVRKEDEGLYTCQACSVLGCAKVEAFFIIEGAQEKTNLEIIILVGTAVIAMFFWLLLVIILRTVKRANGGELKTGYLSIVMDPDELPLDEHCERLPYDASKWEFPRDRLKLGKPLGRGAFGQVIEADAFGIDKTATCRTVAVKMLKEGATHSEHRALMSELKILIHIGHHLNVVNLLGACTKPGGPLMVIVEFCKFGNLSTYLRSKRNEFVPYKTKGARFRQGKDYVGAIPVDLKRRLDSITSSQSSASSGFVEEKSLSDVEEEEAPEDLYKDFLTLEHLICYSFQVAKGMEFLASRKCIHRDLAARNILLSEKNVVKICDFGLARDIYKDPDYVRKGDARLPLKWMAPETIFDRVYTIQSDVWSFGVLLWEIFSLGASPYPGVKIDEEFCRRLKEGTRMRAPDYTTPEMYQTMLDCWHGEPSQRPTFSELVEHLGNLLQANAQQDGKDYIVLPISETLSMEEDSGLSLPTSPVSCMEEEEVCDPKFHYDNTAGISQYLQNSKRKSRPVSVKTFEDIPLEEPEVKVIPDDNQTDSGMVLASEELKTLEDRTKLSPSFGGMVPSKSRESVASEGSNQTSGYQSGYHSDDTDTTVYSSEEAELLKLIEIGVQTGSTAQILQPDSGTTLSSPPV

Cc1[nH]nc2c1N=C(c1ccccc1Cl)c1cc(N)ccc1N2
IC50 [1]: 50 nM
IC50 [2]: 34 nM
IC50 [3]: 303 nM
IC50 [4]: 88 nM

COc1cc2c(cc1F)C(c1ccccc1Cl)=Nc1c(n[nH]c1C)N2 [RG-1530]
TGI (HCT-116 [5]): inactive
Vd [6]: 3.12 L/kg
Activity (MDA-MB-231 [7]): Active
TGI (MDA-MB-231 [8]): Active
IC50 [1]: 28 nM
Vd [9]: 3.22 L/kg
Tmax [10]: 4 h
Survival (A549 [11]): >=25%
IC50 (HUVEC [12]): 118 nM
IC50 (HUVEC [13]): 49 nM
half-life [14]: 4.7 h
IC50 [15]: 200 nM
IC50 (Aurora kinase A): 58 nM
IC50 [16]: 200 nM
Survival (MDA-MB-231 [17]): >=25%
Cmax [18]: 5070 ng/mL
AUC(0-t) at 24 h [19]: 46700 ng·h/mL
IC50 [20]: 200 nM
IC50 [21]: 200 nM
Activity (Mus musculus [22]): Non-toxic
Activity (Mus musculus [23]): Non-toxic
bioavailability [24]: 88.7%
clearance [25]: 7.82 mL/min/kg
TGI (A549 [26]): inactive
AUC(0-t) at 24 h [27]: 4820 ng·h/mL
AUC(0-t) at 24 h [28]: 86300 ng·h/mL
Survival (LoVo): >=25%
Tmax [29]: 4 h
bioavailability [30]: 96.9%
TGI (22Rv1 (Homo sapiens)): 98%
clearance [31]: 8.8 mL/min/kg
IC50 [32]: 200 nM
half-life [33]: 3.83 h
Cmax [34]: 5360 ng/mL
half-life [35]: 4.32 h
Activity (Mus musculus [36]): Non-toxic
IC50 [37]: 200 nM
Vd [38]: 1.59 L/kg
Tmax [39]: 2 h
Cmax [40]: 406 ng/mL
Activity (Mus musculus [41]): Non-toxic
IC50 (HUVEC [42]): 688 nM
Survival (HCT-116 [43]): >=25%
bioavailability [44]: 22.1%
Activity (MDA-MB-231 [45]): Active
clearance [46]: 8.78 mL/min/kg

Reference: ChEMBL document CHEMBL2321712 (ACS Med Chem Lett, 2013)
